Entries after “also recorded” stand apart in the source; their conditions may differ. Where a name gives a salt, the structure may show the parent alone. Read-outs that look alike come from different tables or passages of the source.
Assays:
[1] = cited from earlier work
[2] = system: epithelial cells/adenocytes and connective tissue/capillaries; assay: Preferential staining of epithelial cells/adenocytes or connective tissue/capillaries; type: in vivo, mouse; settings: 5 mg/ml for curcumin, 1 mg/ml for all other dyes
Experimental: Drinking water containing 2% (w/v) dextran sodium sulfate (DSS) was given to 8-week-old C57B6 mice (male, approximately 20 g) for 7 days. After intraperitoneal injection of 0.2 ml of 5% chloral hydrate for anesthesia, the mouse abdominal wall was incised vertically to about 1 cm, and the gastrointestinal tract was raised over the abdominal wall to about 1 cm. Blood flow to the gastrointestinal tract was maintained during this time by the blood vessel flowing into the mesenteric attachment site. The gastrointestinal tract was incised vertically to about 1 cm on opposite side of the mesenteric attachment site, including the tunica muscularis and mucosa. The opposite side of the mesenteric attachment site was incised in order to prevent severance and damage of the blood vessel and minimize bleeding. When the incision site of the gastrointestinal tract was opened vertically, the mucosal surface of the gastrointestinal tract, as the food channel, became visible. When food digestion products were present they were wiped off with tissue paper.
In order to more clearly observe the gastrointestinal tract mucosal surface, a 1% pronase solution was dropped onto the mucosal surface and was allowed to stand still for 15 minutes. This pronase treatment removed the mucus from the mucosal surface, rendering the cell structure more easily visible. Next, the pronase was removed from the mucosal surface and rinsed with physiological saline (PBS).
A metal ring (outer diameter: 16 millimeters, inner diameter, 6 millimeters) was placed on a laboratory stage, and a rapid bonding adhesive (AronAlpha) was coated over the entire periphery of the ring surface on one side. Forceps were used to hold the rapid bonding adhesive-coated metal ring with the adhesive-coated surface facing downward, and it was set on the pronase-treated mucosal surface. During a period of about 5 minutes, the metal ring became anchored to the mucosa with the rapid bonding adhesive, and the region where the dye compound was to be applied was rinsed with PBS.
In order to avoid drying of the mucosal surface, a curcumin stock solution or sulfuretin stock solution diluted with physiological saline (PBS) (see Tables 1 to 3 for the dilution factors) was added dropwise onto the pronase-treated mucosal surface, and after allowing it to stand for 1 minute, it was rinsed 3 times with PBS, a cover glass was placed over the metal ring, and the objective lens of a multiphoton laser microscope (FV1000 MPE by Olympus Corp.) was brought near to the top of the cover glass for image observation.
The procedure from administration of the dye compound to observation was conducted as described above under “Evaluation of stainability” (same hereunder). Also, the administered concentration of dye to the mucosal surface was 5 mg/ml for curcumin as Dye No. 1, and 1 mg/ml for all of the other dyes.

[3] = system: MDCK-GFP-Ras^V12 cells mixed with MDCK normal cells; assay: In vitro assay of MDCK-Ras^V12 cancerized cell small aggregates as a very early cancer model; type: cell-based, canine; settings: excitation 750, 800, 850, 900 nm, red fluorescence
Experimental: The MDCK normal cells were cultured in a 10 cm dish, and the MDCK-GFP-Ras^V12 cells were cultured in a 6 cm dish. The culture solution used for the MDCK normal cells was DMEM (containing Phenol Red)+10% FBS+penicillin/streptomycin.
The solution used for the MDCK-GFP-Ras^V12 cells was DMEM (containing Phenol Red)+10% FBS+penicillin/streptomycin+Zeocin (400 μg/ml)+blasticidin (5 μg/ml). […] The seeding was carried out using a DMEM+10% FBS+penicillin/streptomycin culture solution, to 1.0 to 3.0×10^4 cells per well of the 96-well dish. Tetracycline at a concentration of 2 μg/ml was added to the culture solution after 4 days when seeding was to 1.0×10^4 or after 1 day when seeding was to 3.0×10^4, and GFP-Ras^V12 was expressed, forming cancerized cell small aggregates among the MDCK normal cells (NPL 3). After 18 to 36 hours, the cells in each of the wells were rinsed 3 times with 200 μl of PBS, and then the Prestwick Chemical Library compounds and the Ministry of Health, Labour and Welfare-approved food additives, each diluted to 1 μM with a 100 μl volume of PBS, were added to the respective wells and taken up by the cells for 5 minutes at room temperature. They were then rinsed 3 times with 200 μl of PBS, and in certain cases further rinsed once with 100 μl of DMEM without Phenol Red, and observed under a multiphoton laser microscope.

[4] = Prestwick Chemical Library compounds, 1 μM, 5 minutes

CC1=C(/C=C/C(C)=C/C=C/C(C)=C/C=C/C=C(C)/C=C/C=C(C)/C=C/C(=O)[C@]2(C)C[C@@H](O)CC2(C)C)C(C)(C)C[C@H](O)C1 [Capsanthin]
LD50 ([1]; Mouse, Oral): 300 mg/kg

O=C(O[C@@H]1Cc2c(O)cc(O)cc2O[C@@H]1c1cc(O)c(O)c(O)c1)c1cc(O)c(O)c(O)c1 [Epigallocatechin gallate]
Cell group preferentially stained (epithelial cells/adenocytes or connective tissue/capillaries) [2]: preferentially stained epithelial cells/adenocytes
LD50 ([1]; Mouse, Oral): 2170 mg/kg

Oc1ccc(-c2ccc3c(O)cc(O)cc3[o+]2)cc1.[Cl-] [Apigeninidin]
LD50 ([1]; Mouse, Oral): 300 mg/kg

O=c1c(O)c(-c2cc(O)c(O)c(O)c2)oc2cc(O)cc(O)c12 [Myricetin]
Cell group preferentially stained (epithelial cells/adenocytes or connective tissue/capillaries) [2]: preferentially stained epithelial cells/adenocytes
LD50 ([1]; Mouse, Oral): 300 mg/kg

O=C([O-])c1c(Cl)c(Cl)c(Cl)c(Cl)c1-c1c2cc(I)c(=O)c(I)c-2oc2c(I)c([O-])c(I)cc12.[Na+].[Na+] [Red #105 (720 nm)]
LD50 ([1]; Mouse, Oral): 6480 mg/kg

COc1cc(/C=C/C(=O)CC(=O)/C=C/c2ccc(O)c(OC)c2)ccc1O [Curcumin (pure), Curcumin]
LD50 ([1]; mouse, in vivo, po): 2000 mg/kg

COc1cccc2c1C(=O)c1c(O)c3c(c(O)c1C2=O)C[C@@](O)(C(=O)CO)C[C@@H]3O[C@H]1C[C@H](N)[C@H](O)[C@H](C)O1 [doxorubicin hydrochloride, reference compound]
Staining of GFP-Ras^V12 positive cancerized cells versus MDCK normal cells ([3]; Prestwick Chemical Library compounds, 1 μM, 5 minutes, hydrochloride): intensely labeling MDCK normal cells compared to cancerized cell small aggregates; also recorded: GFP-Ras^V12 cells were not specifically stained, but normal cells were stained

CC1(C)C(/C=C/C=C/C=C/C=C2\N(CCCCS(=O)(=O)O)c3ccc4ccccc4c3C2(C)C)=[N+](CCCCS(=O)(=O)[O-])c2ccc3ccccc3c21 [Indocyanine green, reference compound]
Cell group preferentially stained (epithelial cells/adenocytes or connective tissue/capillaries) [2]: preferentially stained epithelial cells/adenocytes

Oc1ccc(-c2[o+]c3cc(O)cc(O)c3cc2O)cc1 [Pelargonidin]
LD50 ([1]; Mouse, Oral): 300 mg/kg

meclocycline sulfosalicylate [reference compound]
Staining of GFP-Ras^V12 positive cancerized cells versus MDCK normal cells [3, 4]: intensely labeled in GFP-Ras^V12 positive cancerized cell small aggregates compared to normal cells; also recorded: GFP-Ras^V12 positive cells were preferentially stained

O=S(=O)([O-])c1ccc2c(N=Nc3ccc(S(=O)(=O)[O-])c4ccccc34)c(O)c(S(=O)(=O)[O-])cc2c1.[Na+].[Na+].[Na+] [Red #2]
LD50 ([1]; Mouse, Intra-abdominal): 1000 mg/kg

CCN(CC)c1ccc2c(-c3ccc(S(=O)(=O)[O-])cc3S(=O)(=O)[O-])c3ccc(=[N+](CC)CC)cc-3oc2c1.[Na+] [Red #106, Acid Red]
Staining of GFP-Ras^V12 positive cancerized cells versus MDCK normal cells ([3]; Ministry of Health, Labour and Welfare-approved food additives, 1 mg/ml): labeled both cancerized cell small aggregates and normal cells; also recorded: staining of both normal cells and cancer cells
Cell group preferentially stained (epithelial cells/adenocytes or connective tissue/capillaries) [2]: the cell membranes of epithelial cells and adenocytes, and connective tissue/capillaries were strongly stained
LD50 ([1]; Mouse, Oral): >20,000 mg/kg
LD50 ([1]; Mouse, Oral, listed as Acid Red): >20000 mg/kg

COc1cc(-c2ccc(N=Nc3ccc4c(S(=O)(=O)[O-])cc(S(=O)(=O)[O-])c(N)c4c3O)c(OC)c2)ccc1N=Nc1ccc2c(S(=O)(=O)[O-])cc(S(=O)(=O)[O-])c(N)c2c1O.[Na+].[Na+].[Na+].[Na+] [Chicago sky blue 6B, reference compound]
Staining of GFP-Ras^V12 positive cancerized cells versus MDCK normal cells [3, 4]: labeling both cancerized cell small aggregates and normal cells
Staining of GFP-Ras^V12 positive cancerized cells versus MDCK normal cells ([3]; Prestwick Chemical Library compounds, 1 μM, 5 minutes, listed as Chicago Sky Blue 6B): equal staining of normal cells and cancer cells

O=C1/C(=C2\Nc3ccc(S(=O)(=O)[O-])cc3C2=O)Nc2ccc(S(=O)(=O)[O-])cc21.[Na+].[Na+] [Blue #2, indigo carmine]
Cell group preferentially stained (epithelial cells/adenocytes or connective tissue/capillaries) [2]: preferentially stained connective tissue/capillaries
LD50 ([1]; Mouse, Oral): 2000 mg/kg

O=C(O)c1nn(-c2ccc(S(=O)(=O)O)cc2)c(O)c1N=Nc1ccc(S(=O)(=O)O)cc1 [Yellow #4, tartrazine]
LD50 ([1]; Mouse, Oral): 12750 mg/kg

Oc1cc(O)c2ccc(-c3cc(O)c(O)c(O)c3)[o+]c2c1 [Tricetinidin]
Cell group preferentially stained (epithelial cells/adenocytes or connective tissue/capillaries) [2]: preferentially stained epithelial cells/adenocytes
LD50 ([1]; Mouse, Oral): 300 mg/kg

COc1cc(-c2[o+]c3cc(O)cc(O)c3cc2O)cc(OC)c1O [Malvidin]
LD50 ([1]; Mouse, Intra-venous): 18 mg/kg

O=C([O-])c1ccccc1-c1c2cc(Br)c(=O)cc-2oc2[c]([Hg+])c([O-])c(Br)cc12.[Na+].[Na+].[OH-] [merbromin, reference compound]
Staining of GFP-Ras^V12 positive cancerized cells versus MDCK normal cells [3, 4]: intensely labeled in GFP-Ras^V12 positive cancerized cell small aggregates compared to normal cells; also recorded: GFP-Ras^V12 positive cells were preferentially stained

COc1cc(-c2[o+]c3cc(O)cc(O)c3cc2O)cc(O)c1O [Petunidine]
Cell group preferentially stained (epithelial cells/adenocytes or connective tissue/capillaries) [2]: preferentially stained epithelial cells/adenocytes
LD50 ([1]; Mouse, Intra-abdominal): 4110 mg/mL

CCCCC[C@H](O)CC(=O)CCc1ccc(O)c(OC)c1 [Gingerol, 6-gingerol]
Cell group preferentially stained (epithelial cells/adenocytes or connective tissue/capillaries) [2]: preferentially stained epithelial cells/adenocytes
LD50 ([1]; mouse, in vivo, po): 250 mg/kg

O=S(=O)([O-])c1ccc(N=Nc2c(O)ccc3cc(S(=O)(=O)[O-])ccc23)cc1.[Na+].[Na+] [Yellow #5, Sunset Yellow FCF]
LD50 ([1]; Mouse, Oral): >6000 mg/kg

Oc1ccc2cc(O)c(-c3cc(O)c(O)c(O)c3)[o+]c2c1 [Robinetinidin]
Cell group preferentially stained (epithelial cells/adenocytes or connective tissue/capillaries) [2]: preferentially stained connective tissue/capillaries

O=c1c(O)c(-c2ccc(O)c(O)c2)oc2cc(O)cc(O)c12 [Quercetin]
Cell group preferentially stained (epithelial cells/adenocytes or connective tissue/capillaries) [2]: intensely stained connective tissue/capillaries and faintly stained epithelial cells/adenocytes

From US11293870B2, “Vital stain” (Mie University, priority 2013, dated 2022)
